Measurements from patent US20210171576A1, “METHODS FOR TREATING CANCER WITH ACYLDEPSIPEPTIDE ANALOGS” (priority 2018, published 2021).
Where a SMILES comes first, the peptide text is derived from it. Bridges are numbered along the chain shown (N, C = ends). [ ]: non-standard residue; d: D form. The star is where a group is joined. Phe(3,5-F2) = N[C@@H](Cc1cc(F)cc(F)c1)C(=O)O; Pip(4S-Me) = C[C@H]1CCN[C@H](C(=O)O)C1; 2Nal = N[C@@H](Cc1ccc2ccccc2c1)C(=O)O; Pro(4R-Me) = C[C@H]1CN[C@H](C(=O)O)C1; Tiq1c(1S) = O=C(O)[C@H]1NCCc2ccccc21; Bta = N[C@@H](Cc1csc2ccccc12)C(=O)O; X12 = O=C(/C=C/c1cccc(C(F)(F)F)c1)*; Heptenoyl(2E) = CCCC/C=C/C(=O)*; aThr = C[C@H](O)[C@H](N)C(=O)O; Pip = O=C(O)[C@@H]1CCCCN1; NMeA = CN[C@@H](C)C(=O)O; X1 = CCC/C=C/C=C/C(=O)*; X11 = O=C(/C=C/C=C/CO)*; Boc = CC(C)(C)OC(=O)*; X7 = CCC/C=C\C(=O)*

Experiments:
HsCIpP [1] = target: T1, HsCIpP (Homo sapiens, UniProt Q16740, P57S); test: Peptidase activity assay (Ac-WLA-AMC cleavage) with ADEP; format: biochemical; settings: 6 μM HsCIpP, 100 μM Ac-WLA-AMC
T1 construct: 2x(His6-thrombin)-SUMO (N, cleaved yes); made in house; host or cells: E. coli (SG1146 stated for HsClpP; 'a similar protocol' for HsClpX)
T1 sequence (Q16740 57-277 P57S): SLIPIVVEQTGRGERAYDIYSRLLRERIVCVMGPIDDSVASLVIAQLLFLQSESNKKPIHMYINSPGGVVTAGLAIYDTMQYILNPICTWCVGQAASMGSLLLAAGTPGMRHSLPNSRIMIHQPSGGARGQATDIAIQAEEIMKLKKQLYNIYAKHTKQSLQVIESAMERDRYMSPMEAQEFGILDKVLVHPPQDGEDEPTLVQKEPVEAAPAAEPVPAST
Protocol: The peptidase activity of purified, untagged HsCIpP was assessed by monitoring the degradation of peptidyl substrates labelled with a C-terminal 7-amido-4-methylcoumarin (AMC) fluorophore. […] To identify a suitable peptidyl substrate, commercially available AMC-labelled peptides were purchased and tested for degradation by HsCIpP. These include N-acetyl-Trp-Leu-Ala-AMC (Ac-WLA-AMC) (R&D Systems) that was also previously used by Csizmadia et (Csizmadia et al., 2016), benzyloxycarbonyl-Arg-Arg-AMC (Z-RR-AMC) (Sigma-Aldrich), N-acetyl-Leu-Glu-His-Asp-AMC […] (Sigma-Aldrich), N-acetyl-Val-Glu-Thr-Asp-AMC (Ac-VETD-AMC) (Sigma-Aldrich), and benzyloxycarbonyl-Leu-Leu-Leu-AMC (Z-LLL-AMC) (Sigma-Aldrich). Suc-LY-AMC (MP Biomedicals) was also tested as a negative control. All stock solutions of the AMC-labelled peptides were prepared by dissolving the lyophilized peptides in DMSO at 90 mM or a lower concentration recommended by the manufacturer. […] Degradation of the peptidyl substrates and subsequent release of the free AMC moiety was monitored by fluorescence with λex=360 nm and λem=440 nm using the EnSpire 2300 Multilabel Reader (Perkin-Elmer) set to perform a reading every 30 s with 20 flashes. A total of 240 readings were collected for each of three independent replicates prepared for each peptidyl substrate. […]
Initial degradation rates data were analyzed using the Hill model. […]

[2] = target: T2, human mitochondrial CIpP (HsCIpP) (Homo sapiens, UniProt Q16740); test: Screen of ADEP analogs against HsCIpP: relative degradation (RD) index, casein-FITC degradation relative to E. coli CIpAP; format: biochemical; set-up: key: casein-FITC degradation by HsClpP relative to EcClpAP; settings: for Hs RD1: RD value at 1 μM of the ADEP analog; for Hs RD5: RD value at 5 μM of the ADEP analog; for Hs RD25: RD value at 25 μM of the ADEP analog, measure of ability to activate HsCIpP
T2 construct: made in house; host or cells: E. coli SG1146 (BL21(DE3) ΔclpP::cat)
T2 sequence (Q16740 57-277): as the sequence (Q16740 57-277 P57S) above, with S1P counted along it
Description: Structural analogs of acyldepsipeptide (ADEP) (Goodreid et al., 2016) that were previously developed as potential antibiotics against bacterial CIpP were screened and assessed for their ability to activate and dysregulate the protease activity of HsCIpP, by measuring their relative degradation (RD) index. Note that ADEP-28 was also previously reported by Carney et al. (2014). Details of the experimental protocol have been described in Leung et al., 2011. The RD index is defined as follows: […]
Δφ is the change in fluorescence after 6 hr of starting the reaction measured using 485 nm excitation and 535 nm emission, which primarily detects the signal from casein-FITC. E. coli CIpAP was used as a benchmark for maximum CIpP proteolytic activity. The CIpP in the numerator can be from any other organism. RD25 measurements refer to the measurement in the presence of 25 μM compound. All ADEP analogs were first screened at 25 μM, and their RD25 scores were calculated using the above formula and method as described in Leung et al., 2011 (FIG. 1A). Those that achieved RD25≥0.87 were screened a second time at 5 μM, followed by calculation of their RD5 scores. The top analogs with RD5≥0.74 were screened a third time at 1 μM, followed by calculation of their RD1 scores (FIG. 1B).
To identify ADEP analogs that allow HsCIpP to degrade folded proteins independent of HsCIpX+ATP (i.e., that activate or dysregulate HsCIpP), the inventors employed the in vitro screening method that was used for identifying small molecule activators of Escherichia coli CIpP (EcCIpP) (Leung et al., 2011). In this approach, the ability of HsCIpP to degrade FITC-labeled casein (casein-FITC) was measured and compared to the ability of EcCIpAP to degrade casein-FITC. This is quantitatively expressed as relative degradation (RD) index (Leung et al., 2011).

HEK293 cells = settings: reported (Bram et al., 2006); cited from earlier work
HsCIpP [3] = target: T1, HsCIpP; test: Casein-FITC degradation by HsCIpP with HsCIpX titrated; format: biochemical; settings: HsCIpX titrated 0 to 18 μM, 3 μM HsCIpP
Protocol: The protease activity of purified HsCIpP was assessed by monitoring the degradation of bovine milk casein labelled with fluorescein isothiocyanate (casein-FITC) (Sigma-Aldrich) in the presence of ADEP and/or purified HsCIpX. All reactions were carried out in 25 mM HEPES, pH 7.5, 35 mM KCl, 25 mM MgCl2, 0.03% Tween-20, 10% glycerol, and 1 mM DTT, supplemented with 16 mM creatine phosphate and 300 μM ATP. HsCIpP was used at 3 μM (final monomeric concentration) and casein-FITC was added at the final concentration of 10 μM. 13 U of creatine phosphokinase (Sigma-Aldrich) was also added for ATP regeneration. DMSO was present at 1% (v:v) final concentration in the experiments that involve the use of ADEP analogs. All reactions were carried out with 150 μL of the reaction mix per well in a 96-well black flat-bottom plate at 37° C. Degradation of casein-FITC and subsequent release of the free FITC moiety was monitored by fluorescence with λex=494 nm and λem=518 nm using the EnSpire 2300 Multilabel Reader set to perform a reading every 40 s with 20 flashes. A total of 100 readings were collected in each experiment.
To investigate the casein-FITC degradation by HsCIpXP, kinetic analysis was performed with HsCIpP held constant at 3 μM (final monomeric concentration) and HsCIpX was titrated from 0 to 18 μM (final monomeric concentration). Initial rates (v0) were determined from data collected over three independent experiments. Non-linear regression analysis was then performed on the initial rates data using the Hill equation, as follows: […]
Vmax is maximal velocity, h is the Hill coefficient, and K0.5 is the microscopic apparent dissociation constant.

| Compound | Hs RD5 [2] | Hs RD25 [2] | other results |
| --- | --- | --- | --- |
| CCC/C=C/C=C/C(=O)N[C@@H](Cc1ccccc1)C(=O)N[C@H]1COC(=O)[C@@H]2C[C@@H](C)CN2C(=O)[C@H](C)NC(=O)[C@H](C)N(C)C(=O)[C@@H]2CCCN2C1=O [ADEP-04] (X1-FSP[NMeA]A[Pro(4R-Me)]; ester 2-C) | 0.78 | 1.03 | Hill coefficient (h), peptidase activity (HsCIpP [1]): 0.8; Hs RD1 [2]: 0.32 |
| CCC/C=C\C(=O)N[C@@H](Cc1ccccc1)C(=O)N[C@H]1COC(=O)[C@@H]2CCCN2C(=O)[C@H](C)NC(=O)[C@H](C)N(C)C(=O)[C@@H]2CCCN2C1=O [ADEP-33] (X7-FSP[NMeA]AP; ester 2-C) | – | 0.07 | – |
| C[C@@H]1NC(=O)[C@H](C)N(C)C(=O)[C@@H]2CCCN2C(=O)[C@@H](NC(=O)[C@H](Cc2ccccc2)NC(=O)OC(C)(C)C)COC(=O)[C@@H]2CCCN2C1=O [ADEP-34] (Boc-FSP[NMeA]AP; ester 2-C) | – | 0.00 | – |
| C[C@@H]1C[C@H]2C(=O)OC[C@H](NC(=O)[C@H](Cc3ccccc3)NC(=O)OC(C)(C)C)C(=O)N3CCC[C@H]3C(=O)N(C)[C@@H](C)C(=O)N[C@@H](C)C(=O)N2C1 [ADEP-35] (Boc-FSP[NMeA]A[Pro(4R-Me)]; ester 2-C) | – | 0.00 | – |
| C[C@@H]1C[C@H]2C(=O)OC[C@H](NC(=O)[C@H](Cc3ccccc3)NC(=O)/C=C/C=C/CO)C(=O)N3CCC[C@H]3C(=O)N(C)[C@@H](C)C(=O)N[C@@H](C)C(=O)N2C1 [ADEP-36] (X11-FSP[NMeA]A[Pro(4R-Me)]; ester 2-C) | – | 0.00 | – |
| CCCC/C=C/C(=O)N[C@@H](Cc1cc(F)cc(F)c1)C(=O)N[C@H]1COC(=O)[C@@H]2C[C@@H](C)CN2C(=O)[C@H](C)NC(=O)[C@@H]2c3ccccc3CCN2C(=O)[C@@H]2CCCN2C1=O [ADEP-37] ({Heptenoyl(2E)}-[Phe(3,5-F2)]SP[Tiq1c(1S)]A[Pro(4R-Me)]; ester 2-C) | 0.86 | 0.92 | Hs RD1 [2]: 0.68 |
| CCCC/C=C/C(=O)N[C@@H](Cc1cc(F)cc(F)c1)C(=O)N[C@@H]1C(=O)N2CCC[C@H]2C(=O)N2CC[C@H](C)C[C@H]2C(=O)N[C@@H](C)C(=O)N2C[C@H](C)C[C@H]2C(=O)O[C@H]1C [ADEP-38] ({Heptenoyl(2E)}-[Phe(3,5-F2)][aThr]P[Pip(4S-Me)]A[Pro(4R-Me)]; ester 2-C) | 0.89 | 0.95 | Hs RD1 [2]: 0.76 |
| C[C@@H]1C[C@H]2C(=O)O[C@@H](C)[C@H](NC(=O)[C@H](Cc3cc(F)cc(F)c3)NC(=O)/C=C/c3cccc(C(F)(F)F)c3)C(=O)N3CCC[C@H]3C(=O)N3CC[C@H](C)C[C@H]3C(=O)N[C@@H](C)C(=O)N2C1 [ADEP-39] (X12-[Phe(3,5-F2)][aThr]P[Pip(4S-Me)]A[Pro(4R-Me)]; ester 2-C) | – | 0.78 | – |
| C[C@@H]1NC(=O)[C@H](C)N(C)C(=O)[C@@H]2CCCN2C(=O)[C@@H](NC(=O)[C@@H](N)Cc2ccccc2)COC(=O)[C@@H]2CCCN2C1=O [ADEP-40] (H-FSP[NMeA]AP; ester 2-C) | – | 0.00 | – |
| CCCC/C=C/C(=O)N[C@@H](Cc1csc2ccccc12)C(=O)N[C@H]1COC(=O)[C@@H]2C[C@@H](C)CN2C(=O)[C@H](C)NC(=O)[C@@H]2CCCCN2C(=O)[C@@H]2CCCN2C1=O [ADEP-42] ({Heptenoyl(2E)}-[Bta]SP[Pip]A[Pro(4R-Me)]; ester 2-C) | 0.49 | 0.87 | – |
| CCCC/C=C/C(=O)N[C@@H](Cc1ccc2ccccc2c1)C(=O)N[C@H]1COC(=O)[C@@H]2C[C@@H](C)CN2C(=O)[C@H](C)NC(=O)[C@@H]2CCCCN2C(=O)[C@@H]2CCCN2C1=O [ADEP-43] ({Heptenoyl(2E)}-[2Nal]SP[Pip]A[Pro(4R-Me)]; ester 2-C) | 0.55 | 0.87 | – |
| CCCC/C=C/C(=O)N[C@@H](Cc1c(F)c(F)c(F)c(F)c1F)C(=O)N[C@H]1COC(=O)[C@@H]2C[C@@H](C)CN2C(=O)[C@H](C)NC(=O)[C@@H]2CCCCN2C(=O)[C@@H]2CCCN2C1=O [ADEP-45] | – | 0.29 | – |
| Cc1nc(N)nc(N)c1-c1ccc(Cl)c(Cl)c1 [Metoprine] | – | – | IC50 (HEK293 cells): 800 nM |
| N.N.[Cl][Pt][Cl] [cisplatin] | – | – | IC50 (HEK293 cells): 430 nM |
| HsCIpX: the AAA+ ATPase HsCIpX, untagged human mitochondrial ClpX, partner of HsCIpP | – | – | Hill coefficient (h) (HsCIpP [3]): 1.25; Vmax (HsCIpP [3]): 6.88 RFU.s^−1; Kd (HsCIpP [3]; read-out: K0.5): 5700 nM |
